Test results: PubChem BioAssay AID1963864 (Molecular Pharmacology Branch, DTP, NCI, 2024)

Tested on: KRAS PDC multicell spheroid viability
Assay: Anticancer human tumor 521955-158-R6-J3-PDC patient-derived pancreatic carcinoma cell line growth inhibition [KRAS2]
Details: for IC50: curve of first compound; for viability, T/C: stronger effect = lower value
Summary of the method: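 KRAS-mutant tumor cells were grown as spheroids with HUVEC endothelial cells and human MSCs as stroma. Targeted agents were tested alone and with KRAS pathway inhibitors. Doses started at or near clinical Cmax, or 10 microM, descending half-log.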

[1] = second compound 0.1 µM, first compound 0.0316 µM
[2] = second compound 0.1 µM, first compound 0.1 µM
[3] = second compound 0.1 µM, first compound 0.316 µM
[4] = second compound 0.1 µM, first compound 1 µM
[5] = second compound 0.1 µM, first compound 3.16 µM
[6] = second compound 0.316 µM, first compound 0.0316 µM
[7] = second compound 0.316 µM, first compound 0.1 µM
[8] = second compound 0.316 µM, first compound 0.316 µM
[9] = second compound 0.316 µM, first compound 1 µM
[10] = second compound 0.316 µM, first compound 3.16 µM
[11] = second compound 1 µM, first compound 0.0316 µM
[12] = second compound 1 µM, first compound 0.1 µM
[13] = second compound 1 µM, first compound 0.316 µM
[14] = second compound 1 µM, first compound 1 µM
[15] = second compound 1 µM, first compound 3.16 µM
[16] = second compound 3.16 µM, first compound 0.0316 µM
[17] = second compound 3.16 µM, first compound 0.1 µM
[18] = second compound 3.16 µM, first compound 0.316 µM
[19] = second compound 3.16 µM, first compound 1 µM
[20] = second compound 3.16 µM, first compound 3.16 µM
[21] = second compound 10 µM, first compound 0.0316 µM
[22] = second compound 10 µM, first compound 0.1 µM
[23] = second compound 10 µM, first compound 0.316 µM
[24] = second compound 10 µM, first compound 1 µM
[25] = second compound 10 µM, first compound 3.16 µM
[26] = second compound 0.1 µM, first compound 10 µM
[27] = second compound 0.316 µM, first compound 10 µM
[28] = second compound 1 µM, first compound 10 µM
[29] = second compound 3.16 µM, first compound 10 µM
[30] = second compound 10 µM, first compound 10 µM
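Further: drug exposure lasted seven days.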
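Wherever viability, T/C is given: 100% = DMSO vehicle wells and lower means fewer viable cells.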

Row | SMILES | IC50 (second compound 0.1 µM) | IC50 (second compound 0.316 µM) | IC50 (second compound 1 µM) | IC50 (second compound 3.16 µM) | IC50 (second compound 10 µM) | viability, T/C [1] | viability, T/C [2] | viability, T/C [3] | viability, T/C [4] | viability, T/C [5] | viability, T/C [6] | viability, T/C [7] | viability, T/C [8] | viability, T/C [9] | viability, T/C [10] | viability, T/C [11] | viability, T/C [12] | viability, T/C [13] | viability, T/C [14] | viability, T/C [15] | other results
1 | CC1COCCN1c1cc(-c2ccnn2C)c2ccnc(-c3ccn[nH]3)c2n1 (stereo not given) + COc1cc2nc(C)nc(NC(C)c3cc(N)cc(C(F)(F)F)c3)c2cc1OC1CCOC1 | > 3.16 µM | > 3.16 µM | > 3.16 µM | > 3.16 µM | < 0.01 µM | 85.4% | 71.3% | 78.3% | 65.5% | 80.4% | 79.6% | 79.1% | 71% | 64.4% | 75.3% | 78.2% | 78.3% | 68.6% | 66.8% | 74.8% | viability, T/C (second compound 0.1 µM, first compound 0.01 µM): 100%; viability, T/C (second compound 0.316 µM, first compound 0.01 µM): 82.8%; viability, T/C (second compound 1 µM, first compound 0.01 µM): 88.5%; viability, T/C (second compound 3.16 µM, first compound 0.01 µM): 77.6%; viability, T/C [16]: 71.6%; viability, T/C [17]: 62.4%; viability, T/C [18]: 54.6%; viability, T/C [19]: 64.3%; viability, T/C [20]: 59.1%; viability, T/C (second compound 10 µM, first compound 0.01 µM): 41.5%; viability, T/C [21]: 48.4%; viability, T/C [22]: 45.3%; viability, T/C [23]: 34.1%; viability, T/C [24]: 47.6%; viability, T/C [25]: 43.4%
2 | CC1OCC2(CCN(c3cnc(Sc4ccnc(N)c4Cl)c(N)n3)CC2)C1N (stereo not given) + COc1cc2nc(C)nc(NC(C)c3cc(N)cc(C(F)(F)F)c3)c2cc1OC1CCOC1 | > 10 µM | > 10 µM | > 10 µM | > 10 µM | < 0.0316 µM | 90.6% | 82.6% | 74.8% | 86.5% | 116% | 82.6% | 86.1% | 96.8% | 87.5% | 112% | 78% | 82.1% | 85% | 83.7% | 103% | viability, T/C [26]: 114%; viability, T/C [27]: 118%; viability, T/C [28]: 124%; viability, T/C [16]: 76.5%; viability, T/C [17]: 79.7%; viability, T/C [18]: 77.2%; viability, T/C [19]: 76.9%; viability, T/C [20]: 99.2%; viability, T/C [29]: 94.6%; viability, T/C [21]: 43.7%; viability, T/C [22]: 34%; viability, T/C [23]: 35.8%; viability, T/C [24]: 27.1%; viability, T/C [25]: 34.1%; viability, T/C [30]: 18%
3 | CCNC(=O)CC1N=C(c2ccc(Cl)cc2)c2cc(OC)ccc2-n2c(C)nnc21 (stereo not given) + COc1cc2nc(C)nc(NC(C)c3cc(N)cc(C(F)(F)F)c3)c2cc1OC1CCOC1 | > 10 µM | > 10 µM | > 10 µM | > 10 µM | 0.0382 µM | 91.4% | 87.3% | 75.6% | 75.2% | 70.5% | 95.6% | 103% | 76.3% | 72.4% | 68.5% | 83.7% | 86.2% | 74.1% | 65.6% | 69.5% | viability, T/C [26]: 75.8%; viability, T/C [27]: 73.1%; viability, T/C [28]: 66.8%; viability, T/C [16]: 70.8%; viability, T/C [17]: 71.3%; viability, T/C [18]: 66.5%; viability, T/C [19]: 73.8%; viability, T/C [20]: 60.7%; viability, T/C [29]: 75.4%; viability, T/C [21]: 48.7%; viability, T/C [22]: 52%; viability, T/C [23]: 39.5%; viability, T/C [24]: 34.2%; viability, T/C [25]: 40%; viability, T/C [30]: 28.4%
4 | Cn1nccc1Nc1nccc(-c2cc3c(s2)C(C)(C)N(CCN2CCOCC2)C3=O)n1 + COc1cc2nc(C)nc(NC(C)c3cc(N)cc(C(F)(F)F)c3)c2cc1OC1CCOC1 | > 10 µM | > 10 µM | > 10 µM | 6.16 µM | < 0.0316 µM | 88.5% | 111% | 96.4% | 85.5% | 79.6% | 86.5% | 111% | 103% | 81.9% | 71.2% | 79.1% | 111% | 99.6% | 82.2% | 65.4% | viability, T/C [26]: 64.8%; viability, T/C [27]: 57.7%; viability, T/C [28]: 56.1%; viability, T/C [16]: 83.6%; viability, T/C [17]: 110%; viability, T/C [18]: 94.8%; viability, T/C [19]: 73.7%; viability, T/C [20]: 55.9%; viability, T/C [29]: 45.8%; viability, T/C [21]: 26.8%; viability, T/C [22]: 30%; viability, T/C [23]: 16%; viability, T/C [24]: 14.1%; viability, T/C [25]: 6.82%; viability, T/C [30]: 3.23%
